Experimental data taken from patent US20070281988A1, “Combination Therapy for Vascular Complications Associated with Hyperglycemia” (priority 2004, published 2007).

Tests used:
Type in all cases: in vivo, rat
sensory saphenous nerve = assay: Sensory nerve conduction velocity (saphenous nerve) in streptozotocin-diabetic rats; conditions: STZ-diabetic rats, lovastatin 5.5 mg/kg; for SNCV (sensory nerve conduction velocity): 2-week treatment after 6 weeks untreated diabetes, ruboxistaurin 0.25 mg/kg, mean ± SEM; for correction of diabetic deficit in sensory conduction velocity: individual doses: ruboxistaurin 0.25 mg/kg
Protocol: (§1) Diabetes is induced in mature (19 week old) male Sprague-Dawley by streptozotocin injection (40-45 mg/kg i.p.). The diabetic state is monitored weekly using commercially available test strips for blood (tail vein) and urine glucose levels. Body weight is also be monitored daily. The criteria for the diabetic state are; blood glucose>19.9 mM, glycosuria, and no evidence of body weight gain. After 6 weeks of untreated diabetes, drugs are administered for a 2-week period.
(§2) In final experiments, rats are anaesthetized with thiobutabarbital (50-100 mg kg^−1 i.p.). The trachea is cannulated for artificial respiration. As described in Cameron N E, Cotter M A, Robertson S (1989), “The effect of aldose reductase inhibition on the pattern of nerve conduction deficits in diabetic rats.” Q. J. Exp. Physiol. 74:917-926; and Cameron N E, Cotter M A, Robertson S (1991), “Effects of essential fatty acid supplementation on peripheral nerve and skeletal muscle function and capillarization in streptozotocin diabetic rats.” Diabetes 40:532-539, the sciatic nerve is exposed between the sciatic notch and knee. Bipolar stimulating electrodes are placed close to the nerve at the notch and knee. A concentric bipolar electrode is inserted into tibialis anterior muscle to monitor evoked electromyographic (EMG) activity. Potentials from each stimulating site are averaged 8 times. Motor conduction velocity is calculated by dividing the distance between stimulating electrodes by the average latency difference between the onset of EMG potentials evoked from the 2 sites. Nerve temperature is monitored using a thermocouple probe, and maintained in the range 36-38° C. by radiant heat. Body temperature is also maintained around 37° C. using a heated blanket. Sensory conduction velocity is measured for sensory saphenous nerve between groin and mid calf in a similar fashion, except that direct nerve evoked potentials are recorded at the ankle using a unipolar platinum hook electrode.

sciatic nerve = assay: Motor nerve conduction velocity (sciatic nerve) in streptozotocin-diabetic rats; conditions: STZ-diabetic rats, lovastatin 5.5 mg/kg; for MNCV (motor nerve conduction velocity): 2-week treatment after 6 weeks untreated diabetes, ruboxistaurin 0.25 mg/kg, mean ± SEM; for correction of diabetic deficit in motor conduction velocity: individual doses: ruboxistaurin 0.25 mg/kg
Protocol: as §1, §2

[1] = system: sciatic nerve endoneurium; assay: Sciatic endoneurial blood flow by microelectrode polarography and hydrogen clearance in streptozotocin-diabetic rats; conditions: STZ-diabetic rats, ruboxistaurin 0.25 mg/kg, lovastatin 5.5 mg/kg, mean ± SEM; for Blood Flow (sciatic endoneurial nutritive): 2-week treatment after 6 weeks untreated diabetes; for Vascular Conductance: blood flow divided by mean arterial blood pressure, 2-week treatment
Protocol: as §1
Sciatic endoneurial blood flow is estimated in the limb contralateral to that for conduction velocity measurements by microelectrode polarography and hydrogen clearance. Day T J, Lagerlund T D, Low P A (1989), “Analysis of H2 clearance curves used to measure blood flow in rat sciatic nerve,” J Physiol 414:35-54; Cameron N E, Cotter M A, Low P A (1991), “Nerve blood flow in early experimental diabetes in rats: relation to conduction deficits.” Am J Physiol 261:E1-E8; Cameron N E, Cotter M A, Hohman T C (1996), “Interactions between essential fatty acid, prostanoid, polyol pathway and nitric oxide mechanisms in the neurovascular deficit of diabetic rats,” Diabetologia 39:172-182. Rats are artificially ventilated. The carotid artery is cannulated to monitor blood pressure. The level of anaesthesia is monitored by observing any reaction of blood pressure to manipulation, and supplementary thiobutabarbital anaesthetic is given as necessary. The sciatic nerve is exposed and the skin around the incision sutured to a metal ring to form a pool filled with mineral oil at 37° C. During recordings, pool temperature is maintained at 35-37° C. by radiant heat. A glass-insulated platinum microelectrode, polarized at 250 mV with respect to a subcutaneous reference electrode, is inserted into the sciatic nerve endoneurium between the sciatic notch and the nerve trifurcation above the knee. 10% H2 would be added to the inspired gas, the proportions of O2 and N2 being adjusted to 20% and 70% respectively. When the H2 current recorded by the electrode has stabilized, indicating equilibrium with arterial blood, the H2 supply is shut off and N2 delivery increased appropriately. H2 clearance is recorded until a stable baseline is reached, which is defined as no systematic decline in electrode current over 5 min. This procedure is then repeated at another nerve site. […] Assuming a tissue density of 1, nutritive blood flow would be calculated as d×100 (ml min^−1 100 g^−1). Vascular conductance is calculated by dividing blood flow by the mean arterial blood pressure over the recording period for that particular clearance curve. […]

| SMILES | SNCV (sensory nerve conduction velocity) (sensory saphenous nerve) [m/s] | correction of diabetic deficit in sensory conduction velocity (sensory saphenous nerve) [%] | MNCV (motor nerve conduction velocity) (sciatic nerve) [m/s] | correction of diabetic deficit in motor conduction velocity (sciatic nerve) [%] | Blood Flow (sciatic endoneurial nutritive) [1] [ml/min/100 g] | Vascular Conductance [1] [ml/min/100 g/mm Hg] |
| --- | --- | --- | --- | --- | --- | --- |
| CN(C)C[C@@H]1CCn2cc(c3ccccc32)C2=C(C(=O)NC2=O)c2cn(c3ccccc23)CCO1 [LY, (S)-9-((Dimethylamino)methyl)-6,7,10,11-tetrahydro-9H,18H-5,21:12,17-dimethenodibenzo(e,k)pyrrolo(3,4-h)(1,4,13)oxadiaza-cyclohexadecine-18,20(19H)-dione] | 54.8 ± 0.3 | ~20 | 53.5 ± 0.3 | ~20 | 10.7 ± 0.4 | 0.101 ± 0.008 |
| CC[C@H](C)C(=O)O[C@H]1C[C@@H](C)C=C2C=C[C@H](C)[C@H](CC[C@@H]3C[C@@H](O)CC(=O)O3)[C@H]21 [LOV, lovastatin] | 54.6 ± 0.4 | ~20 | 54.0 ± 0.4 | ~20 | 10.4 ± 0.6 | 0.091 ± 0.006 |
